Measurements reported in PubChem BioAssay AID1963441 (Molecular Pharmacology Branch, DTP, NCI, 2024).
Each block holds one compound with its values, some of them ahead of it.

Test system: NCI-H1876 complex spheroid growth, % test/control
Assay: Anticancer human tumor NCI-H1876 cell line growth inhibition [Asc];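 also: compound exposure lasted 7 days starting three days after seeding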;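 as to viability, T/C: 100% = DMSO vehicle control wells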
Details: for IC50: curve of first compound; for viability, T/C: stronger effect = lower value
Procedure, shortened: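 Complex spheroids combining tumor cells with HUVEC endothelial cells and human MSCs, at 37 degrees C, 5% CO2; agents tested alone or combined, half-log dilutions from at or near clinical Cmax, or 10 microM if Cmax unknown.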

[1] = second compound 0.00316 µM, first compound 0.00316 µM
[2] = second compound 0.00316 µM, first compound 0.01 µM
[3] = second compound 0.00316 µM, first compound 0.0316 µM
[4] = second compound 0.00316 µM, first compound 0.1 µM
[5] = second compound 0.00316 µM, first compound 0.316 µM
[6] = second compound 0.00316 µM, first compound 1 µM
[7] = second compound 0.01 µM, first compound 0.00316 µM
[8] = second compound 0.01 µM, first compound 0.01 µM
[9] = second compound 0.01 µM, first compound 0.0316 µM
[10] = second compound 0.01 µM, first compound 0.1 µM
[11] = second compound 0.01 µM, first compound 0.316 µM
[12] = second compound 0.01 µM, first compound 1 µM
[13] = second compound 0.0316 µM, first compound 0.00316 µM
[14] = second compound 0.0316 µM, first compound 0.01 µM
[15] = second compound 0.0316 µM, first compound 0.0316 µM
[16] = second compound 0.0316 µM, first compound 0.1 µM
[17] = second compound 0.0316 µM, first compound 0.316 µM
[18] = second compound 0.0316 µM, first compound 1 µM
[19] = second compound 0.1 µM, first compound 0.00316 µM
[20] = second compound 0.1 µM, first compound 0.01 µM
[21] = second compound 0.1 µM, first compound 0.0316 µM
[22] = second compound 0.1 µM, first compound 0.1 µM
[23] = second compound 0.1 µM, first compound 0.316 µM
[24] = second compound 0.1 µM, first compound 1 µM
[25] = second compound 0.316 µM, first compound 0.00316 µM
[26] = second compound 0.316 µM, first compound 0.01 µM
[27] = second compound 0.316 µM, first compound 0.0316 µM
[28] = second compound 0.316 µM, first compound 0.1 µM
[29] = second compound 0.316 µM, first compound 0.316 µM
[30] = second compound 0.316 µM, first compound 1 µM
[31] = second compound 1 µM, first compound 0.00316 µM
[32] = second compound 1 µM, first compound 0.01 µM
[33] = second compound 1 µM, first compound 0.0316 µM
[34] = second compound 1 µM, first compound 0.1 µM
[35] = second compound 1 µM, first compound 0.316 µM
[36] = second compound 1 µM, first compound 1 µM

- IC50 (second compound 0.00316 µM): > 1000 nM
- IC50 (second compound 0.01 µM): > 1000 nM
- IC50 (second compound 0.0316 µM): > 1000 nM
- IC50 (second compound 0.1 µM): > 1000 nM
- IC50 (second compound 0.316 µM): > 1000 nM
- IC50 (second compound 1 µM): > 1000 nM
SMILES: CCN1CCN(Cc2ccc(Nc3ncc(F)c(-c4cc(F)c5nc(C)n(C(C)C)c5c4)n3)nc2)CC1 + CNC(C)C(=O)NC1CN(S(=O)(=O)c2cccc(S(=O)(=O)N3CCC4CCC(C(=O)NC(c5ccccc5)c5ccccc5)N4C(=O)C(NC(=O)C(C)NC)C3)c2)CCC2CCC(C(=O)NC(c3ccccc3)c3ccccc3)N2C1=O
- viability, T/C [1]: 104%
- viability, T/C [2]: 89.2%
- viability, T/C [3]: 103%
- viability, T/C [4]: 93.9%
- viability, T/C [5]: 125%
- viability, T/C [6]: 128%
- viability, T/C [7]: 105%
- viability, T/C [8]: 104%
- viability, T/C [9]: 102%
- viability, T/C [10]: 99.8%
- viability, T/C [11]: 126%
- viability, T/C [12]: 132%
- viability, T/C [13]: 105%
- viability, T/C [14]: 93.1%
- viability, T/C [15]: 102%
- viability, T/C [16]: 108%
- viability, T/C [17]: 129%
- viability, T/C [18]: 136%
- viability, T/C [19]: 100%
- viability, T/C [20]: 102%
- viability, T/C [21]: 104%
- viability, T/C [22]: 109%
- viability, T/C [23]: 118%
- viability, T/C [24]: 131%
- viability, T/C [25]: 110%
- viability, T/C [26]: 93.1%
- viability, T/C [27]: 101%
- viability, T/C [28]: 104%
- viability, T/C [29]: 126%
- viability, T/C [30]: 140%
- viability, T/C [31]: 102%
- viability, T/C [32]: 105%
- viability, T/C [33]: 109%
- viability, T/C [34]: 107%
- viability, T/C [35]: 129%
- viability, T/C [36]: 122%

- IC50 (second compound 0.00316 µM): > 1000 nM
- IC50 (second compound 0.01 µM): 734 nM
- IC50 (second compound 0.0316 µM): 789 nM
- IC50 (second compound 0.1 µM): 701 nM
- IC50 (second compound 0.316 µM): > 1000 nM
- IC50 (second compound 1 µM): 901 nM
SMILES: COc1c(OCCCN2CCOCC2)ccc2c3n(c(=NC(=O)c4cnc(N)nc4)nc12)CCN3 + CNC(C)C(=O)NC1CN(S(=O)(=O)c2cccc(S(=O)(=O)N3CCC4CCC(C(=O)NC(c5ccccc5)c5ccccc5)N4C(=O)C(NC(=O)C(C)NC)C3)c2)CCC2CCC(C(=O)NC(c3ccccc3)c3ccccc3)N2C1=O
- viability, T/C [1]: 106%
- viability, T/C [2]: 107%
- viability, T/C [3]: 103%
- viability, T/C [4]: 81.5%
- viability, T/C [5]: 64.5%
- viability, T/C [6]: 49.2%
- viability, T/C [7]: 105%
- viability, T/C [8]: 106%
- viability, T/C [9]: 107%
- viability, T/C [10]: 82.1%
- viability, T/C [11]: 63.3%
- viability, T/C [12]: 45%
- viability, T/C [13]: 100%
- viability, T/C [14]: 103%
- viability, T/C [15]: 99.4%
- viability, T/C [16]: 84.1%
- viability, T/C [17]: 62.5%
- viability, T/C [18]: 46.7%
- viability, T/C [19]: 102%
- viability, T/C [20]: 101%
- viability, T/C [21]: 98.6%
- viability, T/C [22]: 82.3%
- viability, T/C [23]: 63.8%
- viability, T/C [24]: 44%
- viability, T/C [25]: 107%
- viability, T/C [26]: 117%
- viability, T/C [27]: 93.6%
- viability, T/C [28]: 86.2%
- viability, T/C [29]: 70%
- viability, T/C [30]: 56.4%
- viability, T/C [31]: 105%
- viability, T/C [32]: 109%
- viability, T/C [33]: 96.6%
- viability, T/C [34]: 86.2%
- viability, T/C [35]: 67.5%
- viability, T/C [36]: 48.2%

- IC50 (second compound 0.0316 µM): > 3000 nM
- IC50 (second compound 0.1 µM): > 3000 nM
- IC50 (second compound 0.316 µM): > 3000 nM
- IC50 (second compound 1 µM): > 3000 nM
- IC50 (second compound 3.16 µM): > 3000 nM
- IC50 (second compound 10 µM): > 3000 nM
SMILES: Cc1nc(N2CCC3(CC2)COC(C)C3N)c(CO)nc1Sc1ccnc(N)c1Cl (stereo unspecified) + Cc1c(S(C)(=O)=O)c(-c2cc(F)cc(N3CCN(c4ccc(NS(=O)(=O)c5ccc(NC(CCN6CCC(C(=O)OCCCP(=O)(O)O)CC6)CSc6ccccc6)c(S(=O)(=O)C(F)(F)F)c5)cc4)CC3)c2)c(-c2ccc(Cl)cc2)n1C(C)C
- viability, T/C (second compound 0.0316 µM, first compound 0.00949 µM): 106%
- viability, T/C (second compound 0.0316 µM, first compound 0.03 µM): 86.8%
- viability, T/C (second compound 0.0316 µM, first compound 0.0949 µM): 90.2%
- viability, T/C (second compound 0.0316 µM, first compound 0.3 µM): 78.7%
- viability, T/C (second compound 0.0316 µM, first compound 0.949 µM): 83.2%
- viability, T/C (second compound 0.0316 µM, first compound 3 µM): 79.4%
- viability, T/C (second compound 0.1 µM, first compound 0.00949 µM): 95.7%
- viability, T/C (second compound 0.1 µM, first compound 0.03 µM): 101%
- viability, T/C (second compound 0.1 µM, first compound 0.0949 µM): 93.7%
- viability, T/C (second compound 0.1 µM, first compound 0.3 µM): 88%
- viability, T/C (second compound 0.1 µM, first compound 0.949 µM): 84.2%
- viability, T/C (second compound 0.1 µM, first compound 3 µM): 82.6%
- viability, T/C (second compound 0.316 µM, first compound 0.00949 µM): 81.8%
- viability, T/C (second compound 0.316 µM, first compound 0.03 µM): 89.7%
- viability, T/C (second compound 0.316 µM, first compound 0.0949 µM): 92.2%
- viability, T/C (second compound 0.316 µM, first compound 0.3 µM): 75.7%
- viability, T/C (second compound 0.316 µM, first compound 0.949 µM): 88.4%
- viability, T/C (second compound 0.316 µM, first compound 3 µM): 81.6%
- viability, T/C (second compound 1 µM, first compound 0.00949 µM): 94.2%
- viability, T/C (second compound 1 µM, first compound 0.03 µM): 92%
- viability, T/C (second compound 1 µM, first compound 0.0949 µM): 81.5%
- viability, T/C (second compound 1 µM, first compound 0.3 µM): 83.8%
- viability, T/C (second compound 1 µM, first compound 0.949 µM): 93.7%
- viability, T/C (second compound 1 µM, first compound 3 µM): 74.2%
- viability, T/C (second compound 3.16 µM, first compound 0.00949 µM): 90.1%
- viability, T/C (second compound 3.16 µM, first compound 0.03 µM): 88.7%
- viability, T/C (second compound 3.16 µM, first compound 0.0949 µM): 83.7%
- viability, T/C (second compound 3.16 µM, first compound 0.3 µM): 84.9%
- viability, T/C (second compound 3.16 µM, first compound 0.949 µM): 83.3%
- viability, T/C (second compound 3.16 µM, first compound 3 µM): 80.7%
- viability, T/C (second compound 10 µM, first compound 0.00949 µM): 103%
- viability, T/C (second compound 10 µM, first compound 0.03 µM): 88.8%
- viability, T/C (second compound 10 µM, first compound 0.0949 µM): 85.3%
- viability, T/C (second compound 10 µM, first compound 0.3 µM): 92.4%
- viability, T/C (second compound 10 µM, first compound 0.949 µM): 96.7%
- viability, T/C (second compound 10 µM, first compound 3 µM): 70.3%
